In patent US6080750A, “Pyrimidine compound and anti-rotavirus composition” (priority 1996, dated 2000):
Converted amounts (≈) assume the structure as drawn. Read-outs that look alike come from different tables or passages of the source.

Columns and labels:
[1] = test system: male ICR mice; experiment: Toxicity test (mouse acute toxicity, minimum lethal dose); type: in vivo; conditions: oral (po), male ICR mice fasted overnight, survival 14 days
Source text: A test compound was orally administered to male ICR mice (weight 25-35 g) fasted overnight, and survival thereof was monitored for 14 days.

[2] = test system: rotavirus SA-11 strain; experiment: Determination of antiviral activity (50% plaque reduction method); type: cell-based, rotavirus SA-11 (in CV-1 green monkey kidney cells); conditions: for antiviral index (ED50 /ID50): ED50 CV-1 cells / ID50 rotavirus SA-11; for IC50: 96 h, read-out: ID50 (50% plaque inhibition dose), rotavirus SA-11
Experimental: Determination of activity of test compound against rotavirus and evaluation thereof
rotavirus: To a liquid containing preserved rotavirus SA-11 strain was added trypsin (Sigma, acetylated trypsin type V-S) to 10 μg/ml and incubated at 37° C. for 30 minutes to activate the […], after which the culture was diluted to a concentration of 50 plaque forming units (PFU)/0.1 ml with Eagle's minimum essential medium (MEM) and used for the determination.
(§1) cultured cell: CV-1 cells which are green monkey kidney cell line were cultured in MEM supplemented with 10% calf serum. The culture cells were prepared to a concentration of 4×10^5 cells/ml, plated on a 24 well microplate and cultured for 2 days before use for the determination.
Activated rotavirus SA-11 […] were inoculated at 50 PFU/0.1 ml to CV-1 cells cultured in a monolayer on a 24 well microplate. The virus was allowed to adsorb to the cells in 1.5 hours at 37° C. and the surface layer of the cells was washed three times with MEM. Then, a multilayer agar medium (mixed medium of MEM, 3 μg/ml acetylated trypsin and agar at final concentration of 0.8%, all added at 45° C.) containing aliquot of test compounds was superposed on the cell layer. The cells were incubated at 37° C. for 4 days, immobilized with formalin, stained with a crystal violet solution and counted for plaque number.
The antiviral activity was expressed by the concentration of the test compound (50% plaque inhibition dose: ID50 =μg/ml), which decreased plaques formed in the control cell culture without the test compound, by 50%.
ED50 value was divided by ID50 value and the obtained value was used as an antiviral index for the determination of selective anti-rotaviral activity on infected cells in comparison to that on normal cells (host cells).

[3] = Determination of cytotoxicity (50% cell growth inhibition effect); type: cell-based, green monkey; conditions: monkey; CV-1 cells, 2 days, cell count; read-out: ED50 (50% cell growth inhibition effect dose), CV-1 cells
Experimental: as §1
CV-1 cells were prepared to a concentration of 4×10^4 cells/ml with MEM containing 10% calf serum and plated on a 24 well microplate, which was followed by culture for 2 days. The culture solution thereof was changed to MEM containing 10% calf serum and serially diluted test compounds at various concentrations, and the cells were cultured for 2 days. The cells were prepared into a homogeneous single cell suspension using 0.1% crude trypsin, and counted with a Coulter counter Model D (Coulter Electronics Ltd., England).
The 50% cell growth inhibition effect dose (ED50 =μg/ml) was expressed by the concentration of the test compound, which decreased cell numbers in the control cell culture without the test compound, by 50%.

[4] = in Chlorocebus sabaeus, rotavirus SA-11 50 PFU, CV-1 cells, 37° C., 4 days, plaque count
[5] = Rotavirus, CV-1, in Chlorocebus sabaeus

Row | IC50 [2, 4] | Structure (SMILES) | mouse acute toxicity [lethal dose] (minimum lethal dose) [1] | antiviral index (ED50 /ID50) [2] | CC50 at 48 h [3] | IC50 [2, 5]
1 | – | Nc1c(Cl)ncnc1NCC1(CO)CCC1 [compound 18] | > 500 mg/kg | – | – | –
2 | 3.5 µg/mL (≈ 13.5 µM) | CCC(CC)(CO)CNc1cc(Cl)nc(N)n1 [compound 23] | – | 23 | 80 µg/mL (≈ 309 µM) | –
3 | 1.1 µg/mL (≈ 4.48 µM) | CC(C)(CO)CNc1nc(N)nc(Cl)c1N [compound 24] | – | 51.1 | 56.2 µg/mL (≈ 229 µM) | –
4 | 0.2 µg/mL (≈ 0.731 µM) | CCC(CC)(CO)CNc1nc(N)nc(Cl)c1N [compound 25] | – | 150.0 | 30 µg/mL (≈ 110 µM) | –
5 | – | Nc1nc(Cl)cc(NCC2(O)CCC2)n1 [compound 28] | – | > 10 | > 30 µg/mL | 3 µg/mL (≈ 13.1 µM)
6 | – | Nc1nc(Cl)cc(NCC2(CO)CC(OCc3ccccc3)C2)n1 (centres unmarked) [compound 39] | > 500 mg/kg | – | – | –
7 | – | Nc1nc(Cl)cc(NCC2(CO)CC(Cc3ccccc3)C2)n1 (centres unmarked) [compound 43] | > 500 mg/kg | – | – | –
8 | – | Nc1nc(Cl)cc(NCC2(CO)CC(CCc3ccccc3)C2)n1 (centres unmarked) [compound 44] | > 500 mg/kg | – | – | –
9 | – | Nc1nc(Cl)cc(NCC2(CO)CC(c3ccccc3)C2)n1 (centres unmarked) [compound 47] | > 500 mg/kg | – | – | –
10 | – | Nc1nc(Cl)cc(NCC2(CO)CCCC2)n1 [compound 48] | > 500 mg/kg | – | – | –
11 | – | Nc1nc(Cl)c(N)c(NCC2(CO)CC2)n1 [compound 58] | > 1000 mg/kg | > 67 | > 100 µg/mL | 1.5 µg/mL (≈ 6.16 µM)
12 | 2.2 µg/mL (≈ 9.23 µM) | COc1cc(NCC2(CO)CCC2)nc(N)n1 [compound 86] | – | – | – | –
13 | 12.6 µg/mL (≈ 40.1 µM) | Nc1nccc(NCC2(CO)CC(OCc3ccccc3)C2)n1 (centres unmarked) [compound No. 3] | – | – | – | –
14 | – | Nc1nccc(NCC2(CO)CC(CCc3ccccc3)C2)n1 (centres unmarked) [compound No. 5] | > 500 mg/kg | – | – | –
15 | – | Nc1ncc(Br)c(NCC2(CO)CC(CCc3ccccc3)C2)n1 (centres unmarked) [compound No. 7] | > 500 mg/kg | – | – | –
16 | 10.5 µg/mL (≈ 45.5 µM) | CC(C)(CO)CNc1cc(Cl)nc(N)n1 [compound No. 20, 2-Amino-6-chloro-4-[(3-hydroxy-2,2-dimethylpropyl)amino]pyrimidine] | – | > 9.5 | > 1 µg/mL | –
17 | – | Cl.Cl.Nc1nc(Cl)c(N)c(NCCO)n1 [compound No. 112, 6-Chloro-2,5-diamino-4-[(2-hydroxyethyl)amino]pyrimidine dihydrochloride] | > 1000 mg/kg | – | – | –

Row | Structure (SMILES) | IC50 [2, 4] | mouse acute toxicity [lethal dose] (minimum lethal dose) [1] | antiviral index (ED50 /ID50) [2] | CC50 at 48 h [3] | IC50 [2, 5]
18 | Nc1nc(Cl)c(N)c(NCC2(CO)CCC2)n1 [compound 59] | 1.9 µg/mL (≈ 7.37 µM) | > 500 mg/kg | 2 | 3.6 µg/mL (≈ 14 µM) | –
19 | Nc1nc(O)c(N)c(NCC2(CO)CC2)n1 [compound 104] | 0.6 µg/mL (≈ 2.66 µM) | > 1000 mg/kg | – | – | –
20 | Nc1ncc(Br)c(NCC2(CO)CCC2)n1 [compound No. 6, 2-Amino-5-bromo-4-[[(1-hydroxymethyl-1-cyclobutyl)methyl]amino]pyrimidine] | 2.9 µg/mL (≈ 10.1 µM) | > 500 mg/kg | – | – | –
21 | Nc1nc(Cl)cc(NCC2(CO)CCC2)n1 [compound No. 35, 2-Amino-6-chloro-4-[[(1-hydroxymethyl-1-cyclobutyl)methyl]amino]-pyrimidine] | 7.8 µg/mL (≈ 32.1 µM) | > 500 mg/kg | – | – | –
22 | Nc1nc(Cl)c(N)c(NCCCO)n1 [compound No. 113, 6-Chloro-2,5-diamino-4-[(3-hydroxypropyl)amino]pyrimidine] | 2.6 µg/mL (≈ 11.9 µM) | > 1000 mg/kg | > 38 | > 100 µg/mL | –
